In brackets after ≈: the same amount, converted by molar mass.
Tests used:
[1] = tested on: Entamoeba histolytica; test: Antiprotozoal activity against Entamoeba histolytica HM-1:IMSS trophozoites after 48 hrs by MTT/PMS assay; type: functional, organism-based
[2] = tested on: Giardia intestinalis; test: Antiprotozoal activity against Giardia lamblia IMSS:0989:1 after 48 hrs by MTT/PMS assay; type: functional, organism-based; conditions: Giardia duodenalis, IMSS:0989:1, 48 h

Row | SMILES | IC50 [1] | IC50 [2]
1 | COc1cc(-c2oc3cc(O)cc(O)c3c(=O)c2O[C@@H]2O[C@H](COC(=O)/C=C/c3ccc(O)c(O)c3)[C@H](O)[C@H](O)[C@H]2O)ccc1O | 47.7 µg/mL (≈ 74.5 µM) | 15.3 µg/mL (≈ 23.9 µM)
2 | O=C(/C=C/c1ccc(O)c(O)c1)OC[C@H]1O[C@@H](Oc2c(-c3ccc(O)c(O)c3)oc3cc(O)cc(O)c3c2=O)[C@H](O)[C@@H](O)[C@@H]1O | 14 µg/mL (≈ 22.3 µM) | 105 µg/mL (≈ 167 µM)
3 | C=C1CC[C@H]2O[C@@]2(C)CC[C@@H]2[C@@H]1CC2(C)C | 71.3 µg/mL (≈ 324 µM) | 53.8 µg/mL (≈ 244 µM)
4 | O=C(/C=C/c1ccc(O)c(O)c1)OC[C@H]1O[C@@H](Oc2c(-c3ccc(O)cc3)oc3cc(O)cc(O)c3c2=O)[C@H](O)[C@@H](O)[C@H]1O | 30 µg/mL (≈ 49.1 µM) | 47 µg/mL (≈ 77 µM)
5 | O=c1c(O[C@@H]2O[C@H](CO)[C@@H](O)[C@H](O)[C@H]2O)c(-c2ccc(O)cc2)oc2cc(O)cc(O)c12 [ASTRAGALIN] | 61.2 µg/mL (≈ 136 µM) | 47.5 µg/mL (≈ 106 µM)
6 | CC[C@H]1CN2CCc3cc(OC)c(OC)cc3[C@@H]2C[C@@H]1C[C@H]1NCCc2cc(OC)c(OC)cc21 [EMETINE] | 1.05 µg/mL (≈ 2.18 µM) | 0.41 µg/mL (≈ 0.853 µM)
7 | CC1(C)CC[C@]2(CO)CC[C@]3(C)C(=CC[C@@H]4[C@@]5(C)CC[C@H](O)C(C)(C)[C@@H]5CC[C@]43C)[C@@H]2C1 [ERYTHRODIOL] | 12.7 µg/mL (≈ 28.7 µM) | 29.9 µg/mL (≈ 67.5 µM)
8 | O=c1c(O[C@@H]2O[C@H](CO)[C@@H](O)[C@H](O)[C@H]2O)c(-c2ccc(O)c(O)c2)oc2cc(O)cc(O)c12 [ISOQUERCETIN] | 14.7 µg/mL (≈ 31.7 µM) | 87.3 µg/mL (≈ 188 µM)
9 | COc1cc(-c2oc3cc(O)cc(O)c3c(=O)c2O[C@@H]2O[C@H](CO[C@@H]3O[C@@H](C)[C@H](O)[C@@H](O)[C@H]3O)[C@@H](O)[C@H](O)[C@H]2O)ccc1O [NARCISSIN] | 17.2 µg/mL (≈ 27.5 µM) | 94.7 µg/mL (≈ 152 µM)
10 | C[C@@H]1O[C@@H](OC[C@H]2O[C@@H](Oc3c(-c4ccc(O)cc4)oc4cc(O)cc(O)c4c3=O)[C@H](O)[C@@H](O)[C@@H]2O)[C@H](O)[C@H](O)[C@H]1O [NICOTIFLOROSIDE] | 30.9 µg/mL (≈ 52 µM) | 22.5 µg/mL (≈ 37.8 µM)
11 | C[C@@H]1O[C@@H](OC[C@H]2O[C@@H](Oc3c(-c4ccc(O)c(O)c4)oc4cc(O)cc(O)c4c3=O)[C@H](O)[C@@H](O)[C@@H]2O)[C@H](O)[C@H](O)[C@H]1O [RUTIN] | 120 µg/mL (≈ 196 µM) | 179 µg/mL (≈ 293 µM)
